The text below walks through data of patent US9321790B2, “Pyrimidinone derivatives as antimalarial agents” (SANOFI, priority 2012, dated 2016).

The subject of assay [1] is Plasmodium falciparum (strain NF54). The assay is described as follows: Antimalarial activity test: growth of Plasmodium falciparum in infected human erythrocytes, 3H-hypoxanthine incorporation. Particulars: strain NF54 sensitive to chloroquine, 72 h total incubation. It is filed as cell-based. In short, it runs like this:
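Chloroquine-sensitive NF54 parasites in human erythrocytes (1.25% hematocrit, 0.15% parasitemia) were grown in hypoxanthine-free RPMI 1640 with HEPES and Albumax II, with compound in twofold serial dilution, at 37 °C under 93% N2/4% CO2/3% O2. After 48 h, 3H-hypoxanthine (0.5 μCi) was added for 24 h. Scintillation counts versus drug-free control gave IC50.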

In another assay the target is human PI3Kα (Homo sapiens (Human), UniProt P42336). Put plainly: Human PI3Kα activity test (luciferin/luciferase ATP consumption, KinaseGlo). To be noted: PI3Kα (p110α/p85α), 50 μM PIP2, 2 μM ATP, 90 minutes; read-out: IC50 Human PI3Kα. The class given is biochemical. Background: Kinase-Glo measures the ATP left after a reaction by luminescence.
[2] abbreviates: Plasmodium falciparum, Erythrocyte.

The structures appear in SMILES notation. A value given as a limit tells only on which side of the number the result lay.

human PI3Kα, sequence (P42336 whole entry): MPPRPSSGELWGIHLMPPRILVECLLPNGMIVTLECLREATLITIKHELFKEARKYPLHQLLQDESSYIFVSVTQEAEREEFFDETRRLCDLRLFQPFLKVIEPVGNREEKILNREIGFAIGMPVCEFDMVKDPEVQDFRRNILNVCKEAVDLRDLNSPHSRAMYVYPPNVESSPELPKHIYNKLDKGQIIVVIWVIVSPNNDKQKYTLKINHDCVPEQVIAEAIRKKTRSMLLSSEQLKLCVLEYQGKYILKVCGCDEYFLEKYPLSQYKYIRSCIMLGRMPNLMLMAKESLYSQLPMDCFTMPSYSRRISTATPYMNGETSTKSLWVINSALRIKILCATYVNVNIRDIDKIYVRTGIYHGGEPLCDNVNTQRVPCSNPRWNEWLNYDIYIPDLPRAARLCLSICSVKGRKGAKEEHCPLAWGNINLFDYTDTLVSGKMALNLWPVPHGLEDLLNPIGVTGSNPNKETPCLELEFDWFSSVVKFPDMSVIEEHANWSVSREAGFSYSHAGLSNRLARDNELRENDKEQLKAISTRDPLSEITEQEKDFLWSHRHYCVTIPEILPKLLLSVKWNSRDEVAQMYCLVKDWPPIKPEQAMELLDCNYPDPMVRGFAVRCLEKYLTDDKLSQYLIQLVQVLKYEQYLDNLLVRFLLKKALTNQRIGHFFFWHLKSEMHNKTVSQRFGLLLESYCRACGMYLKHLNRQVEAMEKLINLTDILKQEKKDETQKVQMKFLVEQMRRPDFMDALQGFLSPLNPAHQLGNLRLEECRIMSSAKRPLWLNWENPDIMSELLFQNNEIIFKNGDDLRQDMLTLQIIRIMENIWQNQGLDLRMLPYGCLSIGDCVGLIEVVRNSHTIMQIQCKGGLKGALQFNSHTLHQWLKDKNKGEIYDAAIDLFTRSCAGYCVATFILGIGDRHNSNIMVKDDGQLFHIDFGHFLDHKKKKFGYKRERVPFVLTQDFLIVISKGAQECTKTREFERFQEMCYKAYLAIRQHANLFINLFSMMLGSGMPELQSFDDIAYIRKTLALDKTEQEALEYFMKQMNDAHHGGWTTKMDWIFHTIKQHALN
human PI3Kα, sequence (P27986 whole entry partner): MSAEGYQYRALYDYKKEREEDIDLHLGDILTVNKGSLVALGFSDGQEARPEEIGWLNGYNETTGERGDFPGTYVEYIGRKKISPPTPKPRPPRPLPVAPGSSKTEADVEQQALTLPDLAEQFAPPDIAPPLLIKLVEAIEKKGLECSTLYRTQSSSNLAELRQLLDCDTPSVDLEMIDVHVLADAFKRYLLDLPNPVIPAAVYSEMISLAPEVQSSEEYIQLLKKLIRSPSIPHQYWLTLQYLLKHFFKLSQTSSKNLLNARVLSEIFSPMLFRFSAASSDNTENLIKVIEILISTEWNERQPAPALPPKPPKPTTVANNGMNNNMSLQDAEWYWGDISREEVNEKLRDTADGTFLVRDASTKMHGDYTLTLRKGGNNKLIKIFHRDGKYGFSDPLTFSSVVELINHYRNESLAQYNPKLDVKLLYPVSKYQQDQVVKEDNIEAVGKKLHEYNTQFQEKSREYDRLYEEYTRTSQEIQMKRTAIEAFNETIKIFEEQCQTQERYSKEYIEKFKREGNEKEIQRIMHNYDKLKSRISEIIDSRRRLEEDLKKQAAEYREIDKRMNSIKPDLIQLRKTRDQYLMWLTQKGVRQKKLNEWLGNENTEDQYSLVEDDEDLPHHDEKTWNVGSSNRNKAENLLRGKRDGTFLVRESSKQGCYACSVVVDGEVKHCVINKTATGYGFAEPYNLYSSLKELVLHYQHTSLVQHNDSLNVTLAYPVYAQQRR
Protocol for human PI3Kα: The test uses a luciferin/luciferase system to measure the concentration of ATP and its consumption during the enzymatic reaction.
After 90 minutes, the reaction is quenched by adding 20 μl/well of KinaseGlo reagent (Promega V6713). After 10 minutes in the dark, the luminescence is read using a PHERAStar microplate reader (reading at 0.8 sec/well).

For `CCC(O)(CC)CN1c2nc(N3C[C@@H]4C[C@H]3CO4)cc(=O)n2CC[C@H]1C(F)(F)F` [Compound 54, (8S)-9-(2-ethyl-2-hydroxybutyl)-2-(1S,4S)-2-oxa-5-azabicyclo[2.2.1]hept-5-yl-8-trifluoromethyl-6,7,8,9-tetrahydropyrimido[1,2-a]pyrimidin-4-one], the IC50 (as a rule, the concentration needed to halve the response being measured) came out at 10 nM in assay [1] (setting [2]) and 2210 nM at human PI3Kα.
Turning to `N#Cc1cccc(C(=O)CN2c3nc(N4C[C@@H]5C[C@H]4CO5)cc(=O)n3CC[C@H]2C(F)(F)F)c1` [Compound 55, 3-[2-((S)-8-(1S,4S)-2-Oxa-5-azabicyclo[2.2.1]hept-5-yl-6-oxo-2-trifluoromethyl-3,4-dihydro-2H,6H-pyrimido[1,2-a]pyrimidin-1-yl)acetyl]benzonitrile], the figures for the IC50 (in assay [1]; at human PI3Kα) were 28 nM and above 10000 nM, respectively.
Consider `CC(C)C(=O)CN1c2nc(N3C[C@@H]4C[C@H]3CO4)cc(=O)n2CC[C@H]1C(F)(F)F` [Compound 56, (8S)-9-(3-methyl-2-oxobutyl)-2-(1S,4S)-2-oxa-5-azabicyclo[2.2.1]hept-5-yl-8-trifluoromethyl-6,7,8,9-tetrahydropyrimido[1,2-a]pyrimidin-4-one], for which the IC50 in assay [1] (setting [2]) was 45 nM; on human PI3Kα it was above 10000 nM.
The like results for `CCOC(=O)Nc1ccc(C(=O)CN2c3nc(N4C[C@@H]5C[C@H]4CO5)cc(=O)n3CC[C@H]2C(F)(F)F)cn1` [Compound 57, ethyl {5-[2-((S)8-(1S,4S)-2-oxa-5-azabicyclo[2.2.]hept-5-yl-6-oxo-2-trifluoromethyl-3,4-dihydro-2H,6H-pyrimido[1,2-a]pyrimidin-1-yl)acetyl]pyrid-2-yl}carbamate] were, in that order, 65 nM and above 10000 nM.
For `COC(=O)Nc1ccc(C(=O)CN2c3nc(N4C[C@@H]5C[C@H]4CO5)cc(=O)n3CC[C@H]2C(F)(F)F)cn1` [Compound 58, {5-[2-((S)-8-(1S,4S)-2-Oxa-5-azabicyclo[2.2.1]hept-5-yl-6-oxo-2-trifluoromethyl-3,4-dihydro-2H,6H-pyrimido[1,2-a]pyrimidin-1-yl)acetyl]pyrid-2-yl}carbamic acid methyl ester], the IC50 in assay [1] is 53 nM; on human PI3Kα, 6400 nM.
For `Cc1nc(CN2c3nc(N4C[C@@H]5C[C@H]4CO5)cc(=O)n3CC[C@H]2C(F)(F)F)no1` [Compound 59, (8S)-9-(5-Methyl-[1,2,4]oxadiazol-3-ylmethyl)-2-(1S,4S)-2-oxa-5-azabicyclo[2.2.1]hept-5-yl-8-trifluoromethyl-6,7,8,9-tetrahydropyrimido[1,2-a]pyrimidin-4-one], the IC50 in assay [1] (setting [2]) was 87 nM; on human PI3Kα, above 10000 nM.
For the compound `O=C(CN1c2nc(N3C[C@@H]4C[C@H]3CO4)cc(=O)n2CC[C@H]1C(F)(F)F)c1cccnc1C(F)(F)F` [Compound 60, (8S)-2-(1S,4S)-2-Oxa-5-azabicyclo[2.2.1]hept-5-yl-9-[2-oxo-2-(2-trifluoromethylpyrid-3-yl)ethyl]-8-trifluoromethyl-6,7,8,9-tetrahydropyrimido[1,2-a]pyrimidin-4-one], the IC50 in assay [1] is 19 nM; at human PI3Kα, above 10000 nM.
Take `O=C(CN1c2nc(N3C[C@@H]4C[C@H]3CO4)cc(=O)n2CC[C@H]1C(F)(F)F)c1ccc2nsnc2c1` [Compound 61, (8S)-9-(2-Benzo[1,2,5]thiadiazol-5-yl-2-oxoethyl)-2-(1S,4S)-2-oxa-5-azabicyclo[2.2.1]hept-5-yl-8-trifluoromethyl-6,7,8,9-tetrahydropyrimido[1,2-a]pyrimidin-4-one]: the IC50 in assay [1] (setting [2]) is 130 nM; on human PI3Kα, above 10000 nM.
For `O=C(CN1c2nc(N3C[C@@H]4C[C@H]3CO4)cc(=O)n2CC[C@H]1C(F)(F)F)C1CCOCC1` [Compound 62, (8S)-2-(1S,4S)-2-Oxa-5-azabicyclo[2.2.1]hept-5-yl-9-[2-oxo-2-(tetrahydropyran-4-yl)ethyl]-8-trifluoromethyl-6,7,8,9-tetrahydropyrimido[1,2-a]pyrimidin-4-one], in that order: 11 nM and above 10000 nM.
On to `O=C(CN1c2nc(N3C[C@@H]4C[C@H]3CO4)cc(=O)n2CC[C@H]1C(F)(F)F)c1ccc(OCCF)nc1` [Compound 63, (S)-9-{2-[6-(2-fluoroethoxy)pyrid-3-yl]-2-oxoethyl}-2-(1S,4S)-2-oxa-5-azabicyclo[2.2.1]hept-5-yl-8-trifluoromethyl-6,7,8,9-tetrahydropyrimido[1,2-a]pyrimidin-4-one], for which the results for the IC50 (in assay [1] (setting [2]); at human PI3Kα) were 384 nM and above 7200 nM, respectively.
The like results for `O=C(CN1c2nc(N3C[C@@H]4C[C@H]3CO4)cc(=O)n2CC[C@H]1C(F)(F)F)c1ccc(OCCF)c(F)c1` [Compound 64, (8S)-9-{2-[3-Fluoro-4-(2-fluoroethoxyl)phenyl]-2-oxoethyl}-2-(1S,4S)-2-oxa-5-azabicyclo[2.2.1]hept-5-yl-8-trifluoromethyl-6,7,8,9-tetrahydropyrimido[1,2-a]pyrimidin-4-one] were, in that order, 39 nM and above 10000 nM.
For `COc1ncccc1C(=O)CN1c2nc(N3C[C@@H]4C[C@H]3CO4)cc(=O)n2CC[C@H]1C(F)(F)F` [Compound 65, (8S)-9-[2-(2-Methoxypyrid-3-yl)-2-oxoethyl]-2-(1S,4S)-2-oxa-5-azabicyclo[2.2.1]hept-5-yl-8-trifluoromethyl-6,7,8,9-tetrahydropyrimido[1,2-a]pyrimidin-4-one], the values for the IC50 (in assay [1] (setting [2]); on human PI3Kα) were 21 nM and above 10000 nM, respectively.
The like results for `Cn1cncc1C(=O)CN1c2nc(N3C[C@@H]4C[C@H]3CO4)cc(=O)n2CC[C@H]1C(F)(F)F` [Compound 66, (8S)-9-[2-(3-Methyl-3H-imidazol-4-yl)-2-oxoethyl]-2-(1S,4S)-2-oxa-5-azabicyclo[2.2.1]hept-5-yl-8-trifluoromethyl-6,7,8,9-tetrahydropyrimido[1,2-a]pyrimidin-4-one] were, in that order, 73 nM and above 10000 nM.
As to `O=C(CN1c2nc(N3C[C@@H]4C[C@H]3CO4)cc(=O)n2CC[C@H]1C(F)(F)F)C1CC1` [Compound 67, (8S)-9-(2-Cyclopropyl-2-oxoethyl)-2-(1S,4S)-2-oxa-5-azabicyclo[2.2.1]hept-5-yl-8-trifluoromethyl-6,7,8,9-tetrahydropyrimido[1,2-a]pyrimidin-4-one], the IC50 worked out at 43 nM in assay [1] (setting [2]) and 4000 nM on human PI3Kα.
For `O=C(CN1c2nc(N3C[C@@H]4C[C@H]3CO4)cc(=O)n2CC[C@H]1C(F)(F)F)c1ccccn1` [Compound 68, (8S)-2-(1S,4S)-2-oxa-5-azabicyclo[2.2.1]hept-5-yl-9-(2-oxo-2-pyrid-2-ylethyl)-8-trifluoromethyl-6,7,8,9-tetrahydropyrimido[1,2-a]pyrimidin-4-one], in that order: 27 nM and 6600 nM.
Consider `Cn1nccc1C(=O)CN1c2nc(N3C[C@@H]4C[C@H]3CO4)cc(=O)n2CC[C@H]1C(F)(F)F` [Compound 69, (8S)-9-[2-(2-methyl-2H-pyrazol-3-yl)-2-oxoethyl]-2-(1S,4S)-2-oxa-5-azabicyclo[2.2.1]hept-5-yl-8-trifluoromethyl-6,7,8,9-tetrahydropyrimido[1,2-a]pyrimidin-4-one], for which the figures for the IC50 (in assay [1] (setting [2]); on human PI3Kα) were 96 nM and above 10000 nM, respectively.
For `CN(C)C(=O)COc1ccc(CCN2c3nc(N4CC5CCC(C4)O5)cc(=O)n3C[C@@]2(C)C(F)(F)F)cc1` [Compound 70, N, N-dimethyl-2-(4-{2-[(S)-2-methyl-7-(8-oxa-3-azabicyclo[3.2.1]oct-3-yl)-5-oxo-2-trifluoromethyl-2,3-dihydro-5H-imidazo[1,2-a]pyrimidin-1-yl]ethyl}phenoxy)acetamide], in that order: 12 nM and 1000 nM.
For `COc1cc(F)ccc1[C@H](O)CN1c2nc(N3CC4CCC(C3)O4)cc(=O)n2CC[C@H]1C(F)(F)F` [Compound 71, (8S)-9-[(S)-2-(4-fluoro-2-methoxyphenyl)-2-hydroxyethyl]-2-(8-oxa-3-azabicyclo[3.2.1]oct-3-yl)-8-trifluoromethyl-6,7,8,9-tetrahydropyrimido[1,2-a]pyrimidin-4-one], the results for the IC50 (in assay [1] (setting [2]); on human PI3Kα) were 23 nM and 810 nM, respectively.
The like results for `C[C@@]1(C(F)(F)F)Cn2c(nc(N3CC4CCC(C3)O4)cc2=O)N1CCc1ccc(O)cc1` [Compound 72, (S)-1-[2-(4-hydroxyphenyl)ethyl]-2-methyl-7-(8-oxa-3-azabicyclo[3.2.1]oct-3-yl)-2-trifluoromethyl-2,3-dihydro-1H-imidazo[1,2-a]pyrimidin-5-one] were, in that order, 37 nM and 730 nM.
The like results for `O=C(CN1c2nc(N3CC4CCC(C3)O4)cc(=O)n2CC[C@H]1C(F)(F)F)c1ccccc1` [Compound 73, (8S)-2-(8-Oxa-3-azabicyclo[3.2.1]oct-3-yl)-9-(2-oxo-2-phenylethyl)-8-trifluoromethyl-6,7,8,9-tetrahydropyrimido[1,2-a]pyrimidin-4-one] were, in that order, 44 nM and 2500 nM.
The like results for `CN(C)CCOc1ccc(CCN2c3nc(N4CC5CCC(C4)O5)cc(=O)n3C[C@@]2(C)C(F)(F)F)cc1` [Compound 74, (S)-1-{2-[4-(2-dimethylaminoethoxy)phenyl]ethyl}-2-methyl-7-(8-oxa-3-azabicyclo[3.2.1]oct-3-yl)-2-trifluoromethyl-2,3-dihydro-1H-imidazo[1,2-a]pyrimidin-5-one] were, in that order, 68 nM and 820 nM.
Consider `O=C(CN1c2nc(N3CC4CCC(C3)O4)cc(=O)n2CC[C@H]1C(F)(F)F)c1ccncc1` [Compound 75, (8S)-2-(8-oxa-3-azabicyclo[3.2.1]oct-3-yl)-9-(2-oxo-2-pyrid-4-ylethyl)-8-trifluoromethyl-6,7,8,9-tetrahydropyrimido[1,2-a]pyrimidin-4-one], for which the IC50 is 80 nM in assay [1] (setting [2]) and at least 10000 nM on human PI3Kα.
